Converted amounts (≈) assume the structure as drawn.

Data set [1] is described as follows: Toxicity in brine shrimp larvae assessed as mortality after 24 hrs. The conditions noted are these: artemia salina, in vivo. It is filed as organism-based.
The test system of data set [2] is Artemia salina. Description: Toxicity in brine shrimp larvae assessed as mortality at 400 ug/ml after 24 hrs. It is filed as organism-based. The following applies: in vivo.
The test system of data set [3] is Artemia salina. Kind of data set: Toxicity in brine shrimp larvae assessed as mortality at 800 ug/ml after 24 hrs. In kind it is organism-based. The conditions noted are these: in vivo.
Data set [4] has as its system Artemia salina. Kind of data set: Toxicity in brine shrimp larvae assessed as mortality at 1600 ug/ml after 24 hrs. It is filed as organism-based. The conditions noted are these: in vivo.
In data set [5] the test system is Pichia kudriavzevii. Description: Antimicrobial activity against Candida krusei ATCC 6258 after 24 hrs by broth microdilution method. In kind it is functional. The conditions noted are these: ATCC 6258, 24 h.
The test system of data set [6] is Nakaseomyces glabratus. Kind of data set: Antimicrobial activity against Candida glabrata ATCC 90030 after 24 hrs by broth microdilution method. It is filed as functional. The conditions noted are these: ATCC 90030, 24 h.
Data set [7] deals with Listeria monocytogenes. Kind of data set: Antimicrobial activity against Listeria monocytogenes ATCC 19115 after 24 hrs by broth microdilution method. It is filed as functional. The following applies: ATCC 19115, 24 h.
The test system of data set [8] is Candida albicans. Description: Antimicrobial activity against Candida albicans ATCC 90028 after 24 hrs by broth microdilution method. The following applies: ATCC 90028, 24 h. In kind it is functional.
Data set [9] deals with Staphylococcus aureus. Kind of data set: Antimicrobial activity against Staphylococcus aureus ATCC 25923 after 24 hrs by broth microdilution method. In kind it is functional. The conditions noted are these: ATCC 25923, 24 h.
In data set [10] the test system is Enterococcus faecalis. Kind of data set: Antimicrobial activity against Enterococcus faecalis ATCC 51299 after 24 hrs by broth microdilution method. It is filed as functional. The following applies: ATCC 51299, 24 h.
The test system of data set [11] is Enterococcus faecalis. Kind of data set: Antimicrobial activity against Enterococcus faecalis ATCC 29212 after 24 hrs by broth microdilution method. The following applies: ATCC 29212, 24 h. In kind it is functional.
Data set [12] deals with Pseudomonas aeruginosa. Kind of data set: Antimicrobial activity against Pseudomonas aeruginosa ATCC 27853 after 24 hrs by broth microdilution method. In kind it is functional. The conditions noted are these: ATCC 27853, 24 h.
The subject of data set [13] is Klebsiella pneumoniae. Kind of data set: Antimicrobial activity against Klebsiella pneumoniae ATCC 13883 after 24 hrs by broth microdilution method. The conditions noted are these: ATCC 13883, 24 h. It is filed as functional.
Data set [14] deals with Escherichia coli. Description: Antimicrobial activity against Escherichia coli ATCC 25922 after 24 hrs by broth microdilution method. It is filed as functional. The conditions noted are these: ATCC 25922, 24 h.
The subject of data set [15] is Escherichia coli. Kind of data set: Antimicrobial activity against Escherichia coli ATCC 35218 after 24 hrs by broth microdilution method. It is filed as functional. The conditions noted are these: ATCC 35218, 24 h.

As to `COc1ccc(C(=O)CSc2nc(C)c(C)n2Nc2ccc(C)cc2)cc1`, the LC50 at 24 h in data set [1] was 153 µg/mL (≈ 400 µM). The Activity result in data set [2], in [3] and in data set [4] was “Toxic” each time. Also, the MIC amounted to 25 µg/mL (≈ 65.5 µM) in data set [5]; 100 µg/mL (≈ 262 µM) in data set [6]; 50 µg/mL (≈ 131 µM) in [7]; 25 µg/mL (≈ 65.5 µM) in [8]; 400 µg/mL (≈ 1050 µM) in data set [9]; 400 µg/mL (≈ 1050 µM) in data set [10]. Besides, the MIC was determined as 25 µg/mL (≈ 65.5 µM) in data set [11]; 400 µg/mL (≈ 1050 µM) in [12]; 400 µg/mL (≈ 1050 µM) in [13]; 100 µg/mL (≈ 262 µM) in data set [14]; 400 µg/mL (≈ 1050 µM) in data set [15].

(Values after ChEMBL document CHEMBL3091428, “Synthesis and initial biological evaluation of substituted 1-phenylamino-2-thio-4,5-dimethyl-1H-imidazole derivatives” (Bioorg Med Chem Lett, 2013).)
